# Laboratory results from US5707966A, “Antithrombotic agents” (Eli Lilly and Company, priority 1995, dated 1998).
# Where a name gives a salt, the structure may show the parent alone. Read-outs that look alike come from different tables or passages of the source.
# What was measured:
# Type in all cases: biochemical
# t-PA = biological target: T1, t-PA (Homo sapiens, UniProt P00750); experiment: Kass with t-PA, chromogenic substrate; details: substrate H-D-Ile-Pro-Arg-p-nitroanilide
# T1 construct: purchased American Diagnostica, Greenwich, Conn
# Experimental: By substantially following the procedures described above for human thrombin, and using other human blood coagulation system serine proteases and proteases of the fibrinolytic system with the appropriate chromogenic substrates, identified below, selectivity of the compounds of the present invention with respect to the coagulation factor serine proteases and with respect to the fibrinolytic system serine proteases are evaluated as well as their substantial lack of interference with serine proteases of the fibrinolytic system. Thrombin inhibitors preferably should spare fibrinolysis induced by urokinase, tissue plasminogen activator (t-PA) and streptokinase. This would be important to the therapeutic use of such agents as an adjunct to streptokinase, t-PA or urokinase thrombolytic therapy and to the use of such agents as an endogenous fibrinolysis-sparing (with respect to t-PA and urokinase) antithrombotic agent. In addition to the lack of interference with the amidase activity of the fibrinolytic proteases, such fibrinolytic system sparing can be studied by the use of human plasma clots and their lysis by the respective fibrinolytic plasminogen activators.
# Human plasmin is purchased from Boehringer Mannheim, Indianapolis, Ind.; nt-PA is purchased as single chain activity reference from American Diagnostica, Greenwich, Conn. modified-t-PA6 (mt-PA6) is prepared at Eli Lilly and Company by procedure known in the art (See, Burck, et al., J. Biol. Chem., 265, […] (1990). Plasmin chromogenic substrate H-D-Val-Leu-Lys-p-nitroanilide and tissue plasminogen activator (t-PA) substrate H-D-Ile-Pro-Arg-p-nitroanilide are purchased from Kabi Vitrum, Stockholm, Sweden.
# Human plasma [1] = experiment: Human plasma anticoagulation, prothrombin time (PT); details: concentration required to double the PT, linear extrapolation
# Outline: (§1)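 In plasma from human donors, spiked with a range of compound levels, an automated coagulometer recorded clot formation after thromboplastin (PT), Actin then calcium (APTT) or 10 NIH units/mL thrombin (TT); doubling concentrations were extrapolated linearly.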
# factor Xa = biological target: T2, factor Xa (Homo sapiens, UniProt P00742); experiment: Kass with factor Xa, chromogenic substrate; details: substrate N-Benzoyl-Ile-Glu-Gly-Arg-p-nitroanilide
# T2 construct: Human factors X, Xa, IXa, XIa, and XIIa are purchased; purchased Enzyme Research Laboratories, South Bend, Ind
# Human plasmin = biological target: T3, Human plasmin (Homo sapiens, UniProt P00747); experiment: Kass with plasmin, chromogenic substrate; details: substrate H-D-Val-Leu-Lys-p-nitroanilide
# T3 construct: Human plasmin is purchased; purchased Boehringer Mannheim, Indianapolis, Ind
# Human plasma [2] = experiment: Human plasma anticoagulation, activated partial thromboplastin time (APTT); details: concentration required to double the APTT, linear extrapolation
# Outline: as §1
# Bovine trypsin = biological target: T4, Bovine trypsin (Bos taurus, UniProt P00760); experiment: Kass with trypsin, chromogenic substrate; details: substrate N-Benzoyl-Phe-Val-Arg-p-nitroanilide
# T4 construct: Bovine trypsin is purchased; purchased Worthington Biochemicals, Freehold, N.J
# T4 sequence (P00760 24-246): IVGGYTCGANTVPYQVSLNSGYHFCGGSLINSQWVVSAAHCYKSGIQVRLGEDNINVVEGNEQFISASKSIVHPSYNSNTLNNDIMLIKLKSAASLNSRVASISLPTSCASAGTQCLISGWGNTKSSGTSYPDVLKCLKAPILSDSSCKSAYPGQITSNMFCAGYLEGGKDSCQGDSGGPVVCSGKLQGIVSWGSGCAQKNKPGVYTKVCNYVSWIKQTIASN
# Human Thrombin = Human Thrombin (Homo sapiens, UniProt P00734); experiment: Inhibition of amidase activity of thrombin (Kass)
# Human plasma [3] = experiment: Human plasma anticoagulation, thrombin time (TT); details: concentration required to double the thrombin time, linear extrapolation
# Outline: as §1
# [4] = mean over a range of concentrations, […]
# T2 sequence (P00742 235-488 limits assumed): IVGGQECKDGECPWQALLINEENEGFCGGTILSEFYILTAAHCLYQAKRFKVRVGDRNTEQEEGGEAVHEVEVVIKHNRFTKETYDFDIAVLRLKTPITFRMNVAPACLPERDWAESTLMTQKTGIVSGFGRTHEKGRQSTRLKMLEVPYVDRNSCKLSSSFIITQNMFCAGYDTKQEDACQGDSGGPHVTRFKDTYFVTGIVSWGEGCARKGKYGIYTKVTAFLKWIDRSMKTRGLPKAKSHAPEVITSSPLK
# T2 sequence (P00742 41-179 partner limits assumed): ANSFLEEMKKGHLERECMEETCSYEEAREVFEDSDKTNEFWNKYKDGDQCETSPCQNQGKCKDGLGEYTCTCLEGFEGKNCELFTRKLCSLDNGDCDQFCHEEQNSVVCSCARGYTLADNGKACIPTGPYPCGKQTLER
# T1 sequence (P00750 36-562): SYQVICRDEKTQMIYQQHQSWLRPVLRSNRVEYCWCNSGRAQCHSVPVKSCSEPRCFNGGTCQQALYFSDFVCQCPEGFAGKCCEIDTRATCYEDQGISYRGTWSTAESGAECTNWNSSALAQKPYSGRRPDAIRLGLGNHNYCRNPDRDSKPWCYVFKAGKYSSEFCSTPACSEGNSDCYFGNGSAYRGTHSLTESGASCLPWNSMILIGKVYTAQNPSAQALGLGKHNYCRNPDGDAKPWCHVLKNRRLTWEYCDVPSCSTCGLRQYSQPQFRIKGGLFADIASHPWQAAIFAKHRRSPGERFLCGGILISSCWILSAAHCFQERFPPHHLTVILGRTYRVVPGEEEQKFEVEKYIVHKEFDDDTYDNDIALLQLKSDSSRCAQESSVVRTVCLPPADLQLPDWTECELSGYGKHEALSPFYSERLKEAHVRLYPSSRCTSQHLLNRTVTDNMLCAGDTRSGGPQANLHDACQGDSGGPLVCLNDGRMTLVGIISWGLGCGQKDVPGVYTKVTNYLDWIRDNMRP
# T3 sequence (P00747 97-810): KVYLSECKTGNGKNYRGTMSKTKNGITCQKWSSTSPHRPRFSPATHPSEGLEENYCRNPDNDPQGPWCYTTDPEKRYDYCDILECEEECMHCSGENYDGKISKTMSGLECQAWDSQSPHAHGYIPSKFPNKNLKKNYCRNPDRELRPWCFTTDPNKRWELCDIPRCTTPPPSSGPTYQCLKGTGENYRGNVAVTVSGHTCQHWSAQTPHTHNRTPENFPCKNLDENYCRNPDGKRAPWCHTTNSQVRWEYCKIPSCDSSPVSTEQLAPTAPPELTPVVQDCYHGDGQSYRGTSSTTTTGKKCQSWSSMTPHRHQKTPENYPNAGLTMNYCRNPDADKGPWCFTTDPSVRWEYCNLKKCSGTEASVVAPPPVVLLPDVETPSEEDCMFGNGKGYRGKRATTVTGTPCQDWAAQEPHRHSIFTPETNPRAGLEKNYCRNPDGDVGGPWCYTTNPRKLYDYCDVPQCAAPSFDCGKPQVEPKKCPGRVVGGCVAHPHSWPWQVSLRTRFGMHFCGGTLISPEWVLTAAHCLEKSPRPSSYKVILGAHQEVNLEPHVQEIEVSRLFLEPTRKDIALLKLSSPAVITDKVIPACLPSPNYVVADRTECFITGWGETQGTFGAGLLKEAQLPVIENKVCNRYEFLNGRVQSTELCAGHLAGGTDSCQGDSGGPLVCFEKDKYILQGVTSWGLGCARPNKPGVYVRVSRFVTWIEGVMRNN
# T3 sequence (P00747 97-580 partner limits assumed): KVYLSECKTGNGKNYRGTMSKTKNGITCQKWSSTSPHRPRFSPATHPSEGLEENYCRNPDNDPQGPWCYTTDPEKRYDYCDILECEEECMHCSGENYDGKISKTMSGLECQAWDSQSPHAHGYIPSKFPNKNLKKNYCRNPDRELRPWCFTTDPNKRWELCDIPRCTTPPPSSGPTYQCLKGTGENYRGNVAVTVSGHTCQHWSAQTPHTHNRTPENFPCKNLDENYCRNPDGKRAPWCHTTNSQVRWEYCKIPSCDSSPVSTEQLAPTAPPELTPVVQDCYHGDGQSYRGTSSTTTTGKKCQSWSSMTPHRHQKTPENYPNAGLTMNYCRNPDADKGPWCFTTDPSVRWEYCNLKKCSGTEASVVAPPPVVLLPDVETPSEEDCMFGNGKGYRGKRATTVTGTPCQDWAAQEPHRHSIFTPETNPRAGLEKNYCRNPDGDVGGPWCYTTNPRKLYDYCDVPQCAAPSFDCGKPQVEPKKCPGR
SMILES,Kass t-PA (t-PA),Human Plasma Anticoagulation 2× Clotting time PT (Human plasma [1]),Kass Xa (factor Xa),Kass Plasmin (Human plasmin),Human Plasma Anticoagulation 2× Clotting time APTT (Human plasma [2]),Kass Trypsin (Bovine trypsin),Kass Human Thrombin (Human Thrombin; [4]),Human Plasma Anticoagulation 2× Clotting time TT (Human plasma [3]),Kass Human Thrombin (Human Thrombin)
"N=C(N)c1cccc(CCCNC(=O)[C@@H]2CCCN2C(=O)[C@@H]2NCC[C@@H]3CCCC[C@@H]32)c1 [Example 33, 1-Piq-Pro-m-NHCH2 CH2 CH2 --C6 H4 C(=NH)NH2.HCl]",< 0.001 × 10^6 (L/mole),"70,900 ng/mL",0.04 × 10^6 (L/mole),< 0.001 × 10^6 (L/mole),"59,300 ng/mL",0.02 × 10^6 (L/mole),0.04 × 10^6 (L/mole),"18,900 ng/mL",–
"CCS(=O)(=O)N[C@H](Cc1ccccc1)C(=O)N1CCC[C@H]1C(=O)NCCc1ccc(NC(=N)N)cc1 [Example 35, EtSO2 -D-Phe-Pro-p-NHCH2 CH2 C6 H4 CNH(NH)NH2.HCl]",< 0.001 × 10^6 (L/mole),"78,400 ng/mL",< 0.001 × 10^6 (L/mole),< 0.001 × 10^6 (L/mole),"50,400 ng/mL",0.04 × 10^6 (L/mole),0.09 × 10^6 (L/mole),"4,500 ng/mL",–
"CCS(=O)(=O)N[C@H](Cc1ccccc1)C(=O)N1CCC[C@H]1C(=O)NCc1cccc(NC(=N)N)c1 [Example 36, EtSO2 -D-Phe-Pro-m-NHCH2 C6 H4 NHC(NH)NH2.HCl]",< 0.001 × 10^6 (L/mole),"> 91,000 ng/mL",< 0.001 × 10^6 (L/mole),< 0.001 × 10^6 (L/mole),"> 91,000 ng/mL",0.01 × 10^6 (L/mole),0.06 × 10^6 (L/mole),"7,700 ng/mL",–
"N=C(N)c1ccc(CNC(=O)[C@@H]2CCCN2C(=O)[C@@H](CC2CCCCC2)NCC(=O)O)cc1 [Example 48, HOOCCH2 -D-Cha-Pro-p-NHCH2 C6 H4 C(NH)NH2.HCl]",0.05 × 10^6 (L/mole),59 ng/mL,5.5 × 10^6 (L/mole),0.43 × 10^6 (L/mole),33 ng/mL,250 × 10^6 (L/mole),"4,100 × 10^6 (L/mole)",2 ng/mL,–
"O=C(O)CN[C@H](CC1CCCCC1)C(=O)N1CCC[C@H]1C(=O)NCC1CCNCC1 [Example 53, HO2 CCH2 -D-Cha-Pro-4-NHCH2 -piperidine.HCl]",< 0.001 × 10^6 (L/mole),"34,500 ng/mL",< 0.001 × 10^6 (L/mole),< 0.001 × 10^6 (L/mole),"33,800 ng/mL",0.1 × 10^6 (L/mole),0.36 × 10^6 (L/mole),"1,400 ng/mL",–
"O=C(O)CN[C@H](CC1CCCCC1)C(=O)N1CCC[C@H]1C(=O)NCCC1CCNCC1 [Example 54, HO2 CCH2 -D-Cha-Pro-4-NHCH2 CH2 -piperidine.HCl]",< 0.001 × 10^6 (L/mole),"2,200 ng/mL",< 0.001 × 10^6 (L/mole),0.01 × 10^6 (L/mole),"3,300 ng/mL",0.52 × 10^6 (L/mole),2.8 × 10^6 (L/mole),140 ng/mL,–
"O=C(O)CN[C@H](CC1CCCCC1)C(=O)N1CCC[C@H]1C(=O)NCCCC1CCNCC1 [Example 55, HO2 CCH2 -D-Cha-Pro-4-NHCH2 CH2 CH2 -piperidine.HCl]",< 0.001 × 10^6 (L/mole),"> 91,000 ng/mL",< 0.001 × 10^6 (L/mole),< 0.001 × 10^6 (L/mole),"> 91,000 ng/mL",0.01 × 10^6 (L/mole),0.01 × 10^6 (L/mole),"55,800 ng/mL",–
"N=C(N)N1CCC(CNC(=O)[C@@H]2CCCN2C(=O)[C@@H](CC2CCCCC2)NCC(=O)O)CC1 [Example 56, HO2 CCH2 -D-Cha-Pro-4-NHCH2 -1-amidinopiperidine.HCl]",< 0.001 × 10^6 (L/mole),200 ng/mL,0.20 × 10^6 (L/mole),0.01 × 10^6 (L/mole),160 ng/mL,3.6 × 10^6 (L/mole),490 × 10^6 (L/mole),5 ng/mL,–
"N=C(N)N1CCC(CCNC(=O)[C@@H]2CCCN2C(=O)[C@@H](CC2CCCCC2)NCC(=O)O)CC1 [Example 57, HO2 CCH2 -D-Cha-Pro-4-NHCH2 CH2 -1-amidinopiperidine.HCl]",< 0.001 × 10^6 (L/mole),340 ng/mL,0.01 × 10^6 (L/mole),0.01 × 10^6 (L/mole),360 ng/mL,0.24 × 10^6 (L/mole),–,14 ng/mL,39
"O=C(O)CN[C@H](CC1CCCCC1)C(=O)N1CCC[C@H]1C(=O)NCC1=CCNCC1 [Example 58, HO2 CCH2 -D-Cha-Pro-4-NHCH2 -3,4-dehydro-piperidine.HCl]",< 0.001 × 10^6 (L/mole),"11,400 ng/mL",< 0.001 × 10^6 (L/mole),< 0.001 × 10^6 (L/mole),"14,300 ng/mL",0.40 × 10^6 (L/mole),0.60 × 10^6 (L/mole),710 ng/mL,–
"O=C(O)CN[C@H](CC1CCCCC1)C(=O)N1CCC[C@H]1C(=O)NCCC1=CCNCC1 [Example 59, HO2 CCH2 -D-Cha-Pro-4-NHCH2 CH2 -3,4-dehydro-piperidine.HCl]",< 0.001 × 10^6 (L/mole),"7,000 ng/mL",< 0.001 × 10^6 (L/mole),< 0.001 × 10^6 (L/mole),"5,500 ng/mL",0.21 × 10^6 (L/mole),1.10 × 10^6 (L/mole),420 ng/mL,–
"O=C(O)CN[C@H](CC1CCCCC1)C(=O)N1CCC[C@H]1C(=O)NCCCC1=CCNCC1 [Example 60, HO2 CCH2 -D-Cha-Pro-4-NHCH2 CH2 CH2 -3,4-dehydro-piperidine.HCl]",< 0.001 × 10^6 (L/mole),"77,700 ng/mL",< 0.001 × 10^6 (L/mole),< 0.001 × 10^6 (L/mole),"22,200 ng/mL",0.03 × 10^6 (L/mole),0.24 × 10^6 (L/mole),"3,200 ng/mL",–
"N=C(N)NCCCCNC(=O)[C@@H]1CCCN1C(=O)[C@@H]1NCC[C@H]2CCCC[C@H]21 [Example 61, N-[4-[(aminoiminomethyl)amino]butyl]-1-[[(4aR,8aR)-decahydro-1(R)-isoquinolinyl]carbonyl]-1-prolinamide trihydrochloride]",0.008 × 10^6 (L/mole),756 ng/mL,0.03 × 10^6 (L/mole),0.004 × 10^6 (L/mole),679 ng/mL,1.0 × 10^6 (L/mole),63 × 10^6 (L/mole),45 ng/mL,–
